From PubChem BioAssay (NCI)
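A five-concentration, 48-hour dose response in 96-well plates underlies each endpoint, interpolated linearly between surrounding concentrations. TGI: concentration producing complete growth inhibition.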

What was measured:
Test in all cases: NCI-60 cell line screen, 48 h
OVCAR-5 ovarian = test system: OVCAR-5 ovarian
K-562 leukemia = test system: K-562 leukemia
XF 498 CNS = test system: XF 498 CNS
NCI-H460 lung = test system: NCI-H460 lung
OVCAR-3 ovarian = test system: OVCAR-3 ovarian
RXF 393 renal = test system: RXF 393 renal
UACC-257 melanoma = test system: UACC-257 melanoma
HL-60(TB) leukemia = test system: HL-60(TB) leukemia
SW-620 colon = test system: SW-620 colon
M19-MEL melanoma = test system: M19-MEL melanoma
TK-10 renal = test system: TK-10 renal
NCI-H226 lung = test system: NCI-H226 lung
HOP-62 NSCLC = test system: HOP-62 NSCLC
SNB-78 CNS = test system: SNB-78 CNS
SF-295 CNS = test system: SF-295 CNS
SK-MEL-2 melanoma = test system: SK-MEL-2 melanoma
NCI-H23 lung = test system: NCI-H23 lung
SN12C renal = test system: SN12C renal
DLD-1 colon = test system: DLD-1 colon
KM20L2 colon = test system: KM20L2 colon
CAKI-1 renal = test system: CAKI-1 renal
COLO 205 colon = test system: COLO 205 colon
SK-MEL-5 melanoma = test system: SK-MEL-5 melanoma
KM12 colon = test system: KM12 colon
MALME-3M melanoma = test system: MALME-3M melanoma
DMS 114 small cell lung = test system: DMS 114 small cell lung
HCT-15 colon = test system: HCT-15 colon
786-0 renal = test system: 786-0 renal
SR leukemia = test system: SR leukemia
HOP-92 NSCLC = test system: HOP-92 NSCLC
HCT-116 colon = test system: HCT-116 colon
SK-OV-3 ovarian = test system: SK-OV-3 ovarian
UO-31 renal = test system: UO-31 renal
A549 NSCLC = test system: A549 NSCLC
EKVX NSCLC = test system: EKVX NSCLC
SF-539 CNS = test system: SF-539 CNS
LOX IMVI melanoma = test system: LOX IMVI melanoma
DMS 273 small cell lung = test system: DMS 273 small cell lung
SF-268 CNS = test system: SF-268 CNS
LXFL 529 NSCLC = test system: LXFL 529 NSCLC
IGROV1 ovarian = test system: IGROV1 ovarian
MOLT-4 leukemia = test system: MOLT-4 leukemia
OVCAR-8 ovarian = test system: OVCAR-8 ovarian
UACC-62 melanoma = test system: UACC-62 melanoma
ACHN renal = test system: ACHN renal
SK-MEL-28 melanoma = test system: SK-MEL-28 melanoma
NCI-H522 lung = test system: NCI-H522 lung
HT29 colon = test system: HT29 colon
M14 melanoma = test system: M14 melanoma
HOP-18 NSCLC = test system: HOP-18 NSCLC
OVCAR-4 ovarian = test system: OVCAR-4 ovarian
CCRF-CEM leukemia = test system: CCRF-CEM leukemia
SNB-19 CNS = test system: SNB-19 CNS
RPMI-8226 leukemia = test system: RPMI-8226 leukemia
RXF-631 renal = test system: RXF-631 renal
SNB-75 CNS = test system: SNB-75 CNS
A498 renal = test system: A498 renal
U251 CNS = test system: U251 CNS
HCC-2998 colon = test system: HCC-2998 colon

Structure (SMILES): OCn1nc2c(C3OCCO3)cc3ccccc3n2c1=S
- TGI (OVCAR-5 ovarian): > 100 µM
- TGI (K-562 leukemia): > 100 µM
- TGI (XF 498 CNS): > 100 µM
- TGI (NCI-H460 lung): > 100 µM
- TGI (OVCAR-3 ovarian): > 100 µM
- TGI (RXF 393 renal): > 100 µM
- TGI (UACC-257 melanoma): > 100 µM
- TGI (HL-60(TB) leukemia): > 100 µM
- TGI (SW-620 colon): > 100 µM
- TGI (M19-MEL melanoma): > 100 µM
- TGI (TK-10 renal): > 100 µM
- TGI (NCI-H226 lung): > 100 µM
- TGI (HOP-62 NSCLC): > 100 µM
- TGI (SNB-78 CNS): > 100 µM
- TGI (SF-295 CNS): > 100 µM
- TGI (SK-MEL-2 melanoma): > 100 µM
- TGI (NCI-H23 lung): > 100 µM
- TGI (SN12C renal): > 100 µM
- TGI (DLD-1 colon): > 100 µM
- TGI (KM20L2 colon): > 100 µM
- TGI (CAKI-1 renal): > 100 µM
- TGI (COLO 205 colon): > 100 µM
- TGI (SK-MEL-5 melanoma): > 100 µM
- TGI (KM12 colon): > 100 µM
- TGI (MALME-3M melanoma): > 100 µM
- TGI (DMS 114 small cell lung): > 100 µM
- TGI (HCT-15 colon): > 100 µM
- TGI (786-0 renal): > 100 µM
- TGI (SR leukemia): > 100 µM
- TGI (HOP-92 NSCLC): > 100 µM
- TGI (HCT-116 colon): > 100 µM
- TGI (SK-OV-3 ovarian): > 100 µM
- TGI (UO-31 renal): > 100 µM
- TGI (A549 NSCLC): > 100 µM
- TGI (EKVX NSCLC): > 100 µM
- TGI (SF-539 CNS): > 100 µM
- TGI (LOX IMVI melanoma): > 100 µM
- TGI (DMS 273 small cell lung): > 100 µM
- TGI (SF-268 CNS): > 100 µM
- TGI (LXFL 529 NSCLC): > 100 µM
- TGI (IGROV1 ovarian): > 100 µM
- TGI (MOLT-4 leukemia): > 100 µM
- TGI (OVCAR-8 ovarian): > 100 µM
- TGI (UACC-62 melanoma): > 100 µM
- TGI (ACHN renal): > 100 µM
- TGI (SK-MEL-28 melanoma): > 100 µM
- TGI (NCI-H522 lung): > 100 µM
- TGI (HT29 colon): > 100 µM
- TGI (M14 melanoma): > 100 µM
- TGI (HOP-18 NSCLC): > 100 µM
- TGI (OVCAR-4 ovarian): > 100 µM
- TGI (CCRF-CEM leukemia): > 100 µM
- TGI (SNB-19 CNS): > 100 µM
- TGI (RPMI-8226 leukemia): > 100 µM
- TGI (RXF-631 renal): > 100 µM
- TGI (SNB-75 CNS): > 100 µM
- TGI (A498 renal): > 100 µM
- TGI (U251 CNS): > 100 µM

Structure (SMILES): Cc1nc2c(o1)C(=Nc1ccccc1)c1ccccc1C2=Nc1ccccc1
- TGI (OVCAR-5 ovarian): > 100 µM
- TGI (K-562 leukemia): > 100 µM
- TGI (XF 498 CNS): > 100 µM
- TGI (NCI-H460 lung): > 100 µM
- TGI (OVCAR-3 ovarian): > 100 µM
- TGI (RXF 393 renal): > 100 µM
- TGI (UACC-257 melanoma): > 100 µM
- TGI (HL-60(TB) leukemia): > 100 µM
- TGI (SW-620 colon): 41.3 µM
- TGI (M19-MEL melanoma): > 100 µM
- TGI (TK-10 renal): > 100 µM
- TGI (HOP-62 NSCLC): > 100 µM
- TGI (SNB-78 CNS): > 100 µM
- TGI (SF-295 CNS): > 100 µM
- TGI (SK-MEL-2 melanoma): > 100 µM
- TGI (NCI-H23 lung): > 100 µM
- TGI (SN12C renal): > 100 µM
- TGI (DLD-1 colon): > 100 µM
- TGI (KM20L2 colon): > 100 µM
- TGI (CAKI-1 renal): > 100 µM
- TGI (COLO 205 colon): > 100 µM
- TGI (SK-MEL-5 melanoma): > 100 µM
- TGI (KM12 colon): > 100 µM
- TGI (MALME-3M melanoma): > 100 µM
- TGI (DMS 114 small cell lung): > 100 µM
- TGI (HCT-15 colon): 32 µM
- TGI (786-0 renal): > 100 µM
- TGI (HOP-92 NSCLC): > 100 µM
- TGI (HCT-116 colon): > 100 µM
- TGI (SK-OV-3 ovarian): > 100 µM
- TGI (UO-31 renal): > 100 µM
- TGI (A549 NSCLC): > 100 µM
- TGI (EKVX NSCLC): > 100 µM
- TGI (SF-539 CNS): > 100 µM
- TGI (LOX IMVI melanoma): > 100 µM
- TGI (DMS 273 small cell lung): > 100 µM
- TGI (SF-268 CNS): > 100 µM
- TGI (HCC-2998 colon): > 100 µM
- TGI (LXFL 529 NSCLC): > 100 µM
- TGI (IGROV1 ovarian): > 100 µM
- TGI (MOLT-4 leukemia): > 100 µM
- TGI (OVCAR-8 ovarian): > 100 µM
- TGI (UACC-62 melanoma): > 100 µM
- TGI (ACHN renal): > 100 µM
- TGI (NCI-H522 lung): > 100 µM
- TGI (HT29 colon): > 100 µM
- TGI (M14 melanoma): > 100 µM
- TGI (HOP-18 NSCLC): > 100 µM
- TGI (OVCAR-4 ovarian): > 100 µM
- TGI (CCRF-CEM leukemia): > 100 µM
- TGI (SNB-19 CNS): > 100 µM
- TGI (RPMI-8226 leukemia): > 100 µM
- TGI (RXF-631 renal): > 100 µM
- TGI (SNB-75 CNS): > 100 µM
- TGI (A498 renal): > 100 µM
- TGI (U251 CNS): > 100 µM
